Like-named read-outs stand apart in the source and are kept apart here.
Key:
[1] = Autosampler stability of ready for injection samples; format: physicochemical, human
[2] = Freeze-thaw stability in spiked pooled human plasma; format: physicochemical
[3] = parameters: method as in supplement references [1-55] as printed per drug; conditions: minimum steady-state blood plasma concentration after multiple dose administration; ref supplement references [1-55] per drug; cited from earlier work

Row | SMILES | Autosampler (24h, 4°C) Accuracy [%] [1] [%] | Autosampler (72h, 4°C) Accuracy [%] [1] [%] | Autosampler (24h, 4°C) Accuracy [%] ([1]; validation standard 2xLLOV) | Autosampler (72h, 4°C) Accuracy [%] ([1]; validation standard 2xLLOV) | Autosampler (24h, 4°C) Accuracy [%] ([1]; validation standard MOV) | Autosampler (72h, 4°C) Accuracy [%] ([1]; validation standard MOV) | Autosampler (24h, 4°C) Accuracy [%] ([1]; validation standard ULOV) | Autosampler (72h, 4°C) Accuracy [%] ([1]; validation standard ULOV) | Freeze-Thaw Accuracy [%] [2] [%] | Freeze-Thaw Accuracy [%] ([2]; validation standard 2xLLOV) | Freeze-Thaw Accuracy [%] ([2]; validation standard MOV) | Freeze-Thaw Accuracy [%] ([2]; validation standard ULOV) | cmin [3] [ng/mL] | Autosampler (24h, 4°C) Accuracy [%] ([1]; validation standard LLOV) | Autosampler (72h, 4°C) Accuracy [%] ([1]; validation standard LLOV) | Freeze-Thaw Accuracy [%] ([2]; validation standard LLOV)
1 | Cc1ccc(C(=O)Nc2ccc(CN3CCN(C)CC3)c(C(F)(F)F)c2)cc1C#Cc1cnc2cccnn12 [Ponatinib] | 104.7 | 104.7 | 106.1 | 106.1 | 106.1 | 102.3 | 101.9 | 102.0 | 101.5 | 101.8 | 99.3 | 100.2 | 34 |  |  | 
2 | O=C1CCC(N2C(=O)c3ccccc3C2=O)C(=O)N1 (stereo not drawn) [Thalidomide] |  |  | 102.3 | 101.6 | 105.2 | 96.2 | 96.9 | 97.8 |  | 78.3 | 74.7 | 72.8 | 600 | 98.2 | 98.0 | 83.3
3 | CCC1=C[C@@H]2CN(C1)Cc1c([nH]c3ccccc13)[C@@](C(=O)OC)(c1cc3c(cc1OC)N(C)[C@H]1[C@@](O)(C(=O)OC)[C@H](OC(C)=O)[C@]4(CC)C=CCN5CC[C@]31[C@@H]54)C2 [Vinorelbine] |  |  | 89.9 | 87.3 | 97.7 | 99.6 | 102.4 | 99.5 |  | 105.8 | 95.7 | 96.7 | 2.6 | 65.0 | 67.9 | 120.0
4 | CC1(C)CCC(CN2CCN(c3ccc(C(=O)NS(=O)(=O)c4ccc(NCC5CCOCC5)c([N+](=O)[O-])c4)c(Oc4cnc5[nH]ccc5c4)c3)CC2)=C(c2ccc(Cl)cc2)C1 [Venetoclax] |  |  | 106.9 | 104.7 | 100.0 | 102.3 | 103.7 | 102.7 |  | 102.4 | 97.8 | 101.9 | 520 | 106.3 | 103.3 | 105.4
5 | NC(=O)c1cccc2cn(-c3ccc([C@@H]4CCCNC4)cc3)nc12 [Niraparib] |  |  | 103.0 | 99.6 | 104.6 | 100.5 | 100.8 | 100.1 |  | 96.8 | 96.5 | 97.1 | 649 | 96.8 | 96.3 | 98.0
6 | COc1cc2c(Nc3ccc(Br)cc3F)ncnc2cc1OCC1CCN(C)CC1 [Vandetanib] |  |  | 103.5 | 102.7 | 108.2 | 101.8 | 95.3 | 94.4 |  | 97.2 | 101.5 | 94.0 | 795 | 85.9 | 83.5 | 83.4
7 | CNCc1ccc(-c2[nH]c3cc(F)cc4c3c2CCNC4=O)cc1 [Rucaparib] |  |  | 98.1 | 96.4 | 104.6 | 103.8 | 100.1 | 102.4 |  | 93.7 | 97.8 | 95.5 | 1754 | 104.5 | 104.1 | 104.4
8 | Cc1cn(-c2cc(NC(=O)c3ccc(C)c(Nc4nccc(-c5cccnc5)n4)c3)cc(C(F)(F)F)c2)cn1 [Nilotinib] |  |  | 97.8 | 101.2 | 102.7 | 104.0 | 100.3 | 102.0 |  | 98.5 | 100.9 | 96.0 | 1165 | 88.1 | 92.6 | 92.8
9 | O=C(c1cc(Cc2n[nH]c(=O)c3ccccc23)ccc1F)N1CCN(C(=O)C2CC2)CC1 [Olaparib] |  |  | 103.8 | 100.5 | 100.5 | 98.0 | 103.8 | 100.5 |  | 99.5 | 96.6 | 100.5 | 1570 | 111.6 | 111.2 | 113.4
10 | O=C1CN2Cc3c(ccc(Cl)c3Cl)N=C2N1 [Anagrelide] |  |  | 113.2 | 106.1 | 104.6 | 96.8 | 101.8 | 98.2 |  | 96.5 | 93.8 | 99.6 |  | 111.7 | 110.5 | 92.8
11 | COc1cc2nccc(Oc3ccc(NC(=O)NC4CC4)c(Cl)c3)c2cc1C(N)=O [Lenvatinib] |  |  | 102.4 | 97.9 | 100.6 | 98.6 | 102.6 | 102.7 |  | 102.5 | 98.4 | 103.0 |  | 110.0 | 103.7 | 111.6
12 | CO[C@@H]1[C@H](N(C)C(=O)c2ccccc2)C[C@H]2O[C@]1(C)n1c3ccccc3c3c4c(c5c6ccccc6n2c5c31)C(=O)NC4 [Midostaurin] |  |  | 103.3 | 103.0 | 101.4 | 103.7 | 102.8 | 97.9 |  | 95.9 | 94.6 | 97.4 |  | 109.7 | 108.2 | 100.6
13 | O=c1[nH]c(=O)n([C@H]2C[C@H](O)[C@@H](CO)O2)cc1C(F)(F)F [Trifluridine] |  |  | 117.8 | 107.4 | 113.1 | 102.7 | 104.4 | 98.4 |  | 101.6 | 94.4 | 91.6 |  | 97.0 | 86.9 | 80.9
14 | Cc1ccc(NC(=O)c2ccc(CN3CCN(C)CC3)cc2)cc1Nc1nccc(-c2cccnc2)n1 [Imatinib] |  |  | 115.2 | 116.1 | 108.3 | 101.7 | 95.3 | 95.2 |  | 98.5 | 96.7 | 96.3 |  | 102.3 | 103.7 | 100.6
